Test results taken from patent publication US4283494A, “Microbial lipase, process for its preparation and microbiologically pure culture therefor” (Meito Sangyo Kabushiki Kaisha, priority 1978, dated 1981).
Read-outs that look alike come from different tables or passages of the source.

How the values were obtained:
[1] = system: Lipase I of Japanese Laid-Open Patent Publication No. 21387/77, Alcaligenes sp. PL-266 Meito; conditions: cited from earlier work
[2] = system: Lipase II of Japanese Laid-Open Patent Publication No. 21387/77, Alcaligenes sp. PL-266 Meito; conditions: cited from earlier work
[3] = system: microbial lipase of the invention, Alcaligenes sp. PL-679 Meito (FERM-P No. 3783, ATCC 31371); test: Lipase activity inhibition by inhibiting reagents (contact at 37° C. for 10 minutes, then olive oil emulsion assay); format: biochemical; conditions: inhibiting reagent 10^-2 mole, lipase about 3 U/ml
Method: An aqueous solution of the lipase sample (about 3 units/ml) is contacted with each of the inhibiting agents at 37° C. for 10 minutes, and the lipase activity is measured.
The lipase in a concentration of about 3 U/ml is contacted with various inhibiting reagents at 37° C. for 10 minutes, and then the lipase activity is measured.
Glycine buffer (1 mole, pH 8.7): 2.0 ml
Olive oil emulsion: 2.5 ml
The olive oil emulsion is prepared by adding 20 g of olive oil to 180 ml of a 10% aqueous solution of gum arabic, homogenizing the mixture at 11,000 r.p.m. for 15 minutes while it is cooled to 5°-10° C., and adjusting the pH of the homogenized mixture to 8.7.
The reaction mixture is placed in a 25 ml glass stopper tube, and reacted exactly for 10 minutes at 37° C. Then, the reaction is stopped by adding 1 ml of 2 N sulfuric acid, and 15 ml of a mixture of n-heptane and isopropanol in a ratio of 11:4 is added. The mixture is vigorously shaken for 30 seconds, and allowed to stand for more than 30 minutes. […] The mixture is treated in the same way as above, and the resulting product is titrated with a potassium hydroxide solution, and the measured value obtained is substracted from the measured value obtained above. The amount of fatty acid liberated is calculated from the resulting titration value with reference to the standard line prepared by using a known amount of palmitic acid. […]

[4] = system: microbial lipase of the invention, Alcaligenes sp. PL-679 Meito (FERM-P No. 3783, ATCC 31371); conditions: 10 min
[5] = concentration of bile salt 0.2%
[6] = concentration of bile salt 0.4%
[7] = concentration of bile salt 0.6%
[8] = concentration of bile salt 0.8%

SMILES	Lipase activity, percentage based on the lipase activity in the absence of a bile salt [4, 5]	Lipase activity, percentage based on the lipase activity in the absence of a bile salt [4, 6]	Lipase activity, percentage based on the lipase activity in the absence of a bile salt [4, 7]	Lipase activity, percentage based on the lipase activity in the absence of a bile salt [4, 8]	other results
O=C1O[C@H]([C@@H](O)CO)C([O-])=C1O.[Na+] [sodium ascorbate]					Activity inhibition by sodium ascorbate ([1]; concentration 10^-2 mole): Not inhibited; Activity inhibition by sodium ascorbate ([2]; concentration 10^-2 mole): Not inhibited
II [iodine]					Activity inhibition of the lipase [3]: about 95%
CCOC(=O)OC(=O)OCC [ethoxyformic anhydride]					Activity inhibition of the lipase [3]: about 70%
C[C@H](CCC(=O)NCC(=O)O)[C@H]1CC[C@H]2[C@@H]3[C@H](O)C[C@@H]4C[C@H](O)CC[C@]4(C)[C@H]3C[C@H](O)[C@]12C [Glycocholate]	218%	221%	232%	224%	
C[C@H](CCC(=O)O)[C@H]1CC[C@H]2[C@@H]3CC[C@@H]4C[C@H](O)CC[C@]4(C)[C@H]3C[C@H](O)[C@]12C [Desoxycholate]	289%	300%	305%	303%	
C[C@H](CCC(=O)O)[C@H]1CC[C@H]2[C@@H]3[C@H](O)C[C@@H]4C[C@H](O)CC[C@]4(C)[C@H]3C[C@H](O)[C@]12C [Cholate]	197%	221%	211%	229%	
O=C(O)CI [monoiodoacetic acid]					Activity inhibition by monoiodoacetic acid ([1]; concentration 10^-3 mole): Not inhibited; Activity inhibition by monoiodoacetic acid ([2]; concentration 10^-3 mole): Not inhibited
